Source: patent US12077503B2, “Substituted cyclic amides and their use as herbicides” (FMC CORPORATION, priority 2015, dated 2024)

Tests used:
Assay type in all cases: in vivo
[1] = test system: corn (Zea mays); test: Test G Pre-Emergence Protocol; conditions: Zea mays, pre-emergence, 312 h, evaluated after 13 days; for plant injury at 15.625 g/ha: 15.625 g ai/ha; for plant injury at 15.625 g/ha / plant injury at 250 g/ha: read-out: Corn damage rating (100=total damage to plant; 0=no damage to plant); for plant injury at 62.5 g/ha: 62.5 g ai/ha, 100=total damage to plant, 0=no damage to plant, read-out: plant damage rating, Corn; for plant injury at 250 g/ha: 250 g ai/ha
Summary of the method: (§1)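 Spraying took place one day after sowing, at 15.625, 62.5 or 250 g/ha, using an acetone/water (50:50) spray solution containing 0.5% Tween 20. Plants were kept under glasshouse conditions (24/16 °C, 14 h light, 65% humidity, watered twice daily), and injury was rated 0–100 at day 13.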

[2] = test system: barnyardgrass (Echinochloa crus-galli); test: Test G Pre-Emergence Protocol; conditions: Echinochloa crus-galli, pre-emergence, 312 h, evaluated after 13 days; for pest or weed control at 15.625 g/ha: 15.625 g ai/ha, read-out: Barnyard grass damage rating (100=total damage to plant; 0=no damage to plant); for pest or weed control at 62.5 g/ha: 62.5 g ai/ha, 100=total damage to plant, 0=no damage to plant, read-out: plant damage rating, Barnyardgrass; for pest or weed control at 250 g/ha: 250 g ai/ha, read-out: Barnyardgrass damage rating (100=total damage to plant; 0=no damage to plant)
Summary of the method: as §1

[3] = test system: velvetleaf (Abutilon theophrasti); test: Test G Pre-Emergence Protocol; conditions: Abutilon theophrasti, pre-emergence, 312 h, evaluated after 13 days; for pest or weed control at 15.625 g/ha: 15.625 g ai/ha; for pest or weed control at 15.625 g/ha / pest or weed control at 250 g/ha: read-out: Velvetleaf damage rating (100=total damage to plant; 0=no damage to plant); for pest or weed control at 62.5 g/ha: 62.5 g ai/ha, 100=total damage to plant, 0=no damage to plant, read-out: plant damage rating, Velvetleaf; for pest or weed control at 250 g/ha: 250 g ai/ha
Summary of the method: as §1

[4] = test system: redroot pigweed (Amaranthus retroflexus); test: Test G Pre-Emergence Protocol; conditions: Amaranthus retroflexus, pre-emergence, 312 h, evaluated after 13 days; for pest or weed control at 15.625 g/ha: 15.625 g ai/ha; for pest or weed control at 15.625 g/ha / pest or weed control at 250 g/ha: read-out: Pigweed, Redroot damage rating (100=total damage to plant; 0=no damage to plant); for pest or weed control at 62.5 g/ha: 62.5 g ai/ha, 100=total damage to plant, 0=no damage to plant, read-out: plant damage rating, Pigweed, Redroot; for pest or weed control at 250 g/ha: 250 g ai/ha
Summary of the method: as §1

[5] = test system: giant foxtail (Setaria faberi); test: Test G Pre-Emergence Protocol; conditions: Setaria faberi, pre-emergence, 312 h, evaluated after 13 days; for pest or weed control at 15.625 g/ha: 15.625 g ai/ha; for pest or weed control at 15.625 g/ha / pest or weed control at 250 g/ha: read-out: Foxtail, Giant damage rating (100=total damage to plant; 0=no damage to plant); for pest or weed control at 62.5 g/ha: 62.5 g ai/ha, 100=total damage to plant, 0=no damage to plant, read-out: plant damage rating, Foxtail, Giant; for pest or weed control at 250 g/ha: 250 g ai/ha
Summary of the method: as §1

[6] = test system: ivy-leaved morning glory (Ipomoea hederacea); test: Test G Pre-Emergence Protocol; conditions: Ipomoea, pre-emergence, 312 h, evaluated after 13 days; for pest or weed control at 15.625 g/ha: 15.625 g ai/ha, read-out: Morning-glory, Ivy-leaved damage rating (100=total damage to plant; 0=no damage to plant); for pest or weed control at 62.5 g/ha: 62.5 g ai/ha, 100=total damage to plant, 0=no damage to plant, read-out: plant damage rating, Morningglory, Ivy-leaved; for pest or weed control at 250 g/ha: 250 g ai/ha, read-out: Morningglory, Ivy-leaved damage rating (100=total damage to plant; 0=no damage to plant)
Summary of the method: as §1

[7] = test system: corn (Zea mays); test: Test G Post-Emergence Protocol; conditions: Zea mays, post-emergence, 312 h; for plant injury at 15.625 g/ha: 15.625 g ai/ha, evaluated after 13 days (100=total damage to plant; 0=no damage to plant), read-out: Corn damage rating; for plant injury at 62.5 g/ha: 62.5 g ai/ha, read-out: Corn damage rating (100=total damage to plant; 0=no damage to plant); for plant injury at 62.5 g/ha / plant injury at 250 g/ha: evaluated after 13 days; for plant injury at 250 g/ha: 250 g ai/ha, read-out: damage to plant, Corn (100=total damage to plant; 0=no damage to plant)
Summary of the method: (§2)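 Sow in soil; grow 8 d (24/16 °C, 14 h light, 65% humidity); spray 15.625/62.5/250 g/ha in acetone:water 50:50 + 0.5% Tween 20; grow on, water twice daily; score damage 0–100 at 13 d.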

[8] = test system: barnyardgrass (Echinochloa crus-galli); test: Test G Post-Emergence Protocol; conditions: Echinochloa crus-galli, post-emergence, 312 h; for pest or weed control at 15.625 g/ha: 15.625 g ai/ha, evaluated after 13 days (100=total damage to plant; 0=no damage to plant), read-out: Barnyardgrass damage rating; for pest or weed control at 62.5 g/ha: 62.5 g ai/ha, read-out: Barnyardgrass damage rating (100=total damage to plant; 0=no damage to plant); for pest or weed control at 62.5 g/ha / pest or weed control at 250 g/ha: evaluated after 13 days; for pest or weed control at 250 g/ha: 250 g ai/ha, read-out: damage to plant, Barnyardgrass (100=total damage to plant; 0=no damage to plant)
Summary of the method: as §2

[9] = test system: velvetleaf (Abutilon theophrasti); test: Test G Post-Emergence Protocol; conditions: Abutilon theophrasti, post-emergence, 312 h; for pest or weed control at 15.625 g/ha: 15.625 g ai/ha, evaluated after 13 days (100=total damage to plant; 0=no damage to plant), read-out: Velvetleaf damage rating; for pest or weed control at 62.5 g/ha: 62.5 g ai/ha, read-out: Velvetleaf damage rating (100=total damage to plant; 0=no damage to plant); for pest or weed control at 62.5 g/ha / pest or weed control at 250 g/ha: evaluated after 13 days; for pest or weed control at 250 g/ha: 250 g ai/ha, read-out: damage to plant, Velvetleaf (100=total damage to plant; 0=no damage to plant)
Summary of the method: as §2

[10] = test system: redroot pigweed (Amaranthus retroflexus); test: Test G Post-Emergence Protocol; conditions: Amaranthus retroflexus, post-emergence, 312 h; for pest or weed control at 15.625 g/ha: 15.625 g ai/ha, evaluated after 13 days (100=total damage to plant; 0=no damage to plant), read-out: Pigweed, Redroot damage rating; for pest or weed control at 62.5 g/ha: 62.5 g ai/ha, read-out: Pigweed, Redroot damage rating (100=total damage to plant; 0=no damage to plant); for pest or weed control at 62.5 g/ha / pest or weed control at 250 g/ha: evaluated after 13 days; for pest or weed control at 250 g/ha: 250 g ai/ha, read-out: damage to plant, Pigweed, Redroot (100=total damage to plant; 0=no damage to plant)
Summary of the method: as §2

[11] = test system: giant foxtail (Setaria faberi); test: Test G Post-Emergence Protocol; conditions: Setaria faberi, post-emergence, 312 h; for pest or weed control at 15.625 g/ha: 15.625 g ai/ha, evaluated after 13 days (100=total damage to plant; 0=no damage to plant), read-out: Foxtail, Giant damage rating; for pest or weed control at 62.5 g/ha: 62.5 g ai/ha, read-out: Foxtail, Giant damage rating (100=total damage to plant; 0=no damage to plant); for pest or weed control at 62.5 g/ha / pest or weed control at 250 g/ha: evaluated after 13 days; for pest or weed control at 250 g/ha: 250 g ai/ha, read-out: damage to plant, Foxtail, Giant (100=total damage to plant; 0=no damage to plant)
Summary of the method: as §2

[12] = test system: ivy-leaved morning glory (Ipomoea hederacea); test: Test G Post-Emergence Protocol; conditions: Ipomoea, post-emergence, 312 h; for pest or weed control at 15.625 g/ha: 15.625 g ai/ha, evaluated after 13 days (100=total damage to plant; 0=no damage to plant), read-out: Morningglory, Ivy-leaved damage rating; for pest or weed control at 62.5 g/ha: 62.5 g ai/ha, read-out: Morningglory, Ivy-leaved damage rating (100=total damage to plant; 0=no damage to plant); for pest or weed control at 62.5 g/ha / pest or weed control at 250 g/ha: evaluated after 13 days; for pest or weed control at 250 g/ha: 250 g ai/ha, read-out: damage to plant, Morningglory, Ivy-leaved (100=total damage to plant; 0=no damage to plant)
Summary of the method: as §2

SMILES | plant injury at 15.625 g/ha [1] [%] | plant injury at 62.5 g/ha [1] [%] | plant injury at 250 g/ha [1] [%] | pest or weed control at 15.625 g/ha [2] [%] | pest or weed control at 62.5 g/ha [2] [%] | pest or weed control at 250 g/ha [2] [%] | pest or weed control at 15.625 g/ha [3] [%] | pest or weed control at 62.5 g/ha [3] [%] | pest or weed control at 250 g/ha [3] [%] | pest or weed control at 15.625 g/ha [4] [%] | pest or weed control at 62.5 g/ha [4] [%] | pest or weed control at 250 g/ha [4] [%] | pest or weed control at 15.625 g/ha [5] [%] | pest or weed control at 62.5 g/ha [5] [%] | pest or weed control at 250 g/ha [5] [%] | pest or weed control at 15.625 g/ha [6] [%] | pest or weed control at 62.5 g/ha [6] [%] | pest or weed control at 250 g/ha [6] [%] | plant injury at 15.625 g/ha [7] [%] | plant injury at 62.5 g/ha [7] [%] | further results
C=CCc1ccc(Cl)cc1NC(=O)[C@H]1C(=O)N(C)C[C@@H]1c1ccc(C(F)(F)F)cc1 (racemic) [Compound 1441] | 0 | 0 | 0 | 0 | 0 | 0 | 0 | 0 | 0 | 0 | 0 | 0 | 0 | 0 | 0 | 0 | 0 | 0 | 0 | 0 | plant injury at 250 g/ha [7]: 20%; pest or weed control at 15.625 g/ha [8]: 0%; pest or weed control at 62.5 g/ha [8]: 0%; pest or weed control at 250 g/ha [8]: 0%; pest or weed control at 15.625 g/ha [9]: 0%; pest or weed control at 62.5 g/ha [9]: 0%; pest or weed control at 250 g/ha [9]: 0%; pest or weed control at 15.625 g/ha [10]: 0%; pest or weed control at 62.5 g/ha [10]: 0%; pest or weed control at 250 g/ha [10]: 0%; pest or weed control at 15.625 g/ha [11]: 0%; pest or weed control at 62.5 g/ha [11]: 0%; pest or weed control at 250 g/ha [11]: 20%; pest or weed control at 15.625 g/ha [12]: 0%; pest or weed control at 62.5 g/ha [12]: 0%; pest or weed control at 250 g/ha [12]: 0%
CN1C[C@H](c2cccc3c2OC(F)(F)O3)[C@@H](C(=O)Nc2ccccc2F)C1=O (racemic) [Compound 1465] | 0 | 0 | 0 | 0 | 20 | 70 | 0 | 0 | 0 | 0 | 0 | 0 | 30 | 70 | 90 | 0 | 0 | 0 | 10 | 10 | plant injury at 250 g/ha [7]: 10%; pest or weed control at 15.625 g/ha [8]: 0%; pest or weed control at 62.5 g/ha [8]: 10%; pest or weed control at 250 g/ha [8]: 20%; pest or weed control at 15.625 g/ha [9]: 10%; pest or weed control at 62.5 g/ha [9]: 0%; pest or weed control at 250 g/ha [9]: 10%; pest or weed control at 15.625 g/ha [10]: 10%; pest or weed control at 62.5 g/ha [10]: 0%; pest or weed control at 250 g/ha [10]: 0%; pest or weed control at 15.625 g/ha [11]: 0%; pest or weed control at 62.5 g/ha [11]: 60%; pest or weed control at 250 g/ha [11]: 70%; pest or weed control at 15.625 g/ha [12]: 0%; pest or weed control at 62.5 g/ha [12]: 0%; pest or weed control at 250 g/ha [12]: 20%
